In paper PMC12441834, “Highly Potent and Subtype-Selective Sperm-Specific Potassium Channel SLO3 Inhibitors Display High Tissue Exposure in the Murine Female Reproductive Tract” (ACS Pharmacology & Translational Science, 2025):
Read-outs that look alike come from different tables or passages of the source.

Assay: Drug concentrations in compartments of the murine FRT after IP dosing
Format: in vivo, mouse
Conditions: 10 mg/kg IP; for concentration at 0.25 hr / concentration at 0.5 hr / concentration at 1 hr / concentration at 3 hr / concentration at 6 hr / concentration at 24 hr: mouse
Experimental: Samples were analyzed via electrospray ionization (ESI) LC-MS/MS on an AB Sciex 4500 (Foster City, CA) triple-quadrupole instrument that was coupled with an Agilent 1290 Infinity Binary Pump and multisampler (Santa Clara, CA) and concentrations (ng/mL or ng/g) were determined using a matrix-matched 10-point standard curve and then converted to nM concentrations. Quantitation of compounds was performed via AB Sciex Multiquant software using the raw analyte:IS peak area ratios. The typical detection range was 0.5 ng/mL to ≥5000 ng/mL utilizing a quadratic equation regression with 1/x² weighting. Correction for dilution of all tissue samples was performed postquantitation. The corrections for dilution in the extraction buffer employed correction factors specific to each tissue weight.
In subsequent experiments, mice were dosed by injection into the peritoneum (ip) as a single 10 mg/kg dose, the reproductive organs were dissected, and the ovaries, the oviducts, and the uterus were pooled from 2 animals and frozen. Tissues were subjected to mechanical homogenization (Mini-BeadBeater, BioSpec Products, Inc., Bartlesville, OK) in the presence of stainless-steel beads (1.0 mm) and extraction buffer (isopropanol:water, 7:3, v/v; 1 mL per sample for whole reproductive organs and uterus and 250 μL for ovaries and oviducts). Homogenized tissue samples were then centrifuged (4000 rcf, 5 min, ambient temperature), and 5 μL of the supernatant was used for quantification of the analyte. The plasma standard curve and QCs were used for compound quantitation in reproductive tissues.

[1] = ovary, female mice, read-out: Ovary concentration
[2] = oviduct, female mice, read-out: Oviduct concentration
[3] = plasma, female mice, read-out: Plasma concentration
[4] = uterus, female mice, read-out: Uterus concentration

O=C(c1ccc(OCc2ccc(OC(F)(F)F)cc2)cc1)N1CCN(c2ccc(C(F)(F)F)cn2)CC1 [VU6032735]
oviduct total drug concentration relative to mSLO3 IC50 (24 h, versus IC50 in mouse sperm and in mSLO3-γ2 HEK293 cells): 4.4- to 5.5 fold | oviduct concentration relative to ovary (female mice): 10 fold | oviduct concentration relative to uterus (female mice): 5 fold | total concentrations in the different compartments of the reproductive tract (female mice, for 24 h after dosing): above 1 μM | concentration at 0.25 hr [1]: 7.52 µM | concentration at 0.5 hr [1]: 7.69 µM | concentration at 1 hr [1]: 7.45 µM | concentration at 3 hr [1]: 2.63 µM | concentration at 6 hr [1]: 3.54 µM | concentration at 24 hr [1]: 1.97 µM | concentration at 0.25 hr [2]: 73 µM | concentration at 0.5 hr [2]: 94.8 µM | concentration at 1 hr [2]: 95.2 µM | concentration at 3 hr [2]: 93.6 µM | concentration at 6 hr [2]: 35.3 µM | concentration at 24 hr [2]: 4.02 µM | concentration at 0.25 hr [3]: 1.15 µM | concentration at 0.5 hr [3]: 0.45 µM | concentration at 1 hr [3]: 0.62 µM | concentration at 3 hr [3]: 0.98 µM | concentration at 6 hr [3]: 2.14 µM | concentration at 24 hr [3]: 0.61 µM | concentration at 0.25 hr [4]: 12.4 µM | concentration at 0.5 hr [4]: 11.3 µM | concentration at 1 hr [4]: 21.8 µM | concentration at 3 hr [4]: 4.35 µM | concentration at 6 hr [4]: 6.66 µM | concentration at 24 hr [4]: 3.11 µM
